Some results are limits rather than exact numbers.

This assay has as its target T1, GCase (Homo sapiens, UniProt P04062).
T1 construct: endogenous in cells; host or cells: HeLa cells
T1 sequence (P04062 40-536): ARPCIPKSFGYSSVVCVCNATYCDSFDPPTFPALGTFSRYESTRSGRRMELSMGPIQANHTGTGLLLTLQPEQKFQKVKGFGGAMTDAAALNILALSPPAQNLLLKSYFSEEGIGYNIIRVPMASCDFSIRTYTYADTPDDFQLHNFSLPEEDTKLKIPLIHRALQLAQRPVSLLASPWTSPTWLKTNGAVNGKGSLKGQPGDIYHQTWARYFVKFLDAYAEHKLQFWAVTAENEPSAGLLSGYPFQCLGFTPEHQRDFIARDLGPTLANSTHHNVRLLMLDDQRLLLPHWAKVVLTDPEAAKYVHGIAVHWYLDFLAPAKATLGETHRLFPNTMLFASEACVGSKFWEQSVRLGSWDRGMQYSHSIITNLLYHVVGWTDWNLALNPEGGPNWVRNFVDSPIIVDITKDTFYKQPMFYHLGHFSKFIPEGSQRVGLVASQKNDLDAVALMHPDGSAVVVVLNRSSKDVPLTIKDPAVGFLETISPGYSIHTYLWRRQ
Put plainly: activation of GCase in a live cell PFB assay in HELA cells. It is filed as cell-based.
Consider `C[C@@H]1CC[C@@H](COc2cccnc2C(F)(F)F)CN1c1cnc2cnn(CC(F)F)c2n1` [Compound 79, 1-(2,2-Difluoroethyl)-6-((2R,5R)-2-methyl-5-(((2-(trifluoromethyl)pyridin-3-yl)oxy)methyl)piperidin-1-yl)-1H-pyrazolo[3,4-b]pyrazine], for which the EC50 is < 10 µM.
The same measure for `O=C(NCCc1ccccc1)N1CCC(Oc2ccc(C(F)(F)F)cn2)CC1` [Compound 379]: > 100 µM.
Under `Cc1ccccc1OCC1CCCN(C(=O)c2c(-c3ccccc3)n(C)c3nccnc23)C1` (stereo not drawn) [Compound 81, (5-Methyl-6-phenyl-5H-pyrrolo[2,3-b]pyrazin-7-yl)(3-((o-tolyloxy)methyl)piperidin-1-yl)methanone] stands 10 to 50 µM; under `O=c1cc(-c2ccccc2)cc(N2CCC[C@H](COc3cccnc3C(F)(F)F)C2)[nH]1` [Compound 300, (S)-4-Phenyl-6-(3-(((2-(trifluoromethyl)pyridin-3-yl)oxy)methyl)piperidin-1-yl)pyridin-2(1H)-one], 10 to 50 µM; under `Cc1ccccc1OCC1CCCN(C(=O)c2cnc3c(cc(-c4ccccc4)n3C)n2)C1` (stereo not drawn) [Compound 52, (5-methyl-6-phenyl-5H-pyrrolo[2,3-b]pyrazin-2-yl)(3-((o-tolyloxy)methyl)piperidin-1-yl)methanone], 10 to 50 µM.
In the case of `FC(F)Cn1ncc2ncc(N3C[C@@H]4[C@@H](COc5ccnc(C(F)(F)F)c5)[C@@H]4C3)nc21` [Compound 92, (1R,5S,6S)-3-[1-(2,2-difluoroethyl)-1H-pyrazolo[3,4-b]pyrazin-6-yl]-6-({[2-(trifluoromethyl)pyridin-4-yl]oxy}methyl)-3-azabicyclo[3.1.0]hexane], the EC50 lay within 10 to 50 µM.
The same measure for `CC(CC1CCCN(c2cnc3cnn(CC(F)F)c3n2)C1)c1cccnc1C(F)(F)F` (stereo not drawn) [Compound 108, 1-(2,2-Difluoroethyl)-6-(3-(2-(2-(trifluoromethyl)pyridin-3-yl)propyl)piperidin-1-yl)-1H-pyrazolo[3,4-b]pyrazine]: 50 to 100 µM.
For `CC1CC(COc2cccnc2C(F)(F)F)CN(c2cnc3cnn(CC(F)F)c3n2)C1` (single isomer, unassigned) [Compound 47b], the EC50 was < 10 µM.
For `FC1(COc2cccc(C(F)(F)F)n2)CCCN(c2cncc(-c3nncs3)n2)C1` (stereo not drawn) [Compound 65, 2-[3-Fluoro-3-({[6-(trifluoromethyl)pyridin-2-yl]oxy}methyl)piperidin-1-yl]-6-(1,3,4-thiadiazol-2-yl)pyrazine], the half-maximal effective concentration (EC50) is < 10 µM.
Molecule `Cn1c(-c2ccccc2)cc2ncc(N3CCCC(COc4cccnc4C(F)(F)F)C3)nc21` (stereo not drawn) [Compound 33, 5-Methyl-6-phenyl-3-(3-(((2-(trifluoromethyl)pyridin-3-yl)oxy)methyl)piperidin-1-yl)-5H-pyrrolo[2,3-b]pyrazine] had an EC50 of 10 to 50 µM.
Under `CN(CC1CCCN(c2cnc3cnn(CC(F)F)c3n2)C1)c1cccc(C(F)(F)F)n1` (stereo not drawn) [Compound 239, N-((1-(1-(2,2-Difluoroethyl)-1H-pyrazolo[3,4-b]pyrazin-6-yl)piperidin-3-yl)methyl)-N-methyl-6-(trifluoromethyl)pyridin-2-amine] stands 10 to 50 µM; under `FC(F)(F)c1ncccc1OC[C@@H]1[C@H]2CN(c3cncc(-c4nncs4)n3)C[C@@H]12` [Compound 40, (1R,5S,6S)-3-[6-(1,3,4-Thiadiazol-2-yl)pyrazin-2-yl]-6-({[2-(trifluoromethyl)pyridin-3-yl]oxy}methyl)-3-azabicyclo[3.1.0]hexane], 10 to 50 µM; under `COc1ccc(OCC2CCN(C(=O)c3c(C)cccc3OC)CC2)cc1` [Compound 481], 10 to 50 µM.
`O=C(c1ccc(-c2nnc[nH]2)cc1)N1CCC(OCc2ccccc2)CC1` [Compound 468]: the concentration for a half-maximal effect (EC50) was 50 to 100 µM.
`O=C(c1ccc2cc[nH]c2c1)N1C[C@@H]2[C@@H](COc3cccc(C(F)(F)F)n3)[C@@H]2C1` [Compound 74, 6-[(1R,5S,6S)-6-({[6-(trifluoromethyl)pyridin-2-yl]oxy}methyl)-3-azabicyclo[3.1.0]hexane-3-carbonyl]-1H-indole] registered an EC50 of 10 to 50 µM.
For the molecule `CCCCC[C@H]1CC[C@H](C(=O)N2CCCC(COc3ccccc3)C2)CC1` (stereo partly drawn) [Compound 178], the EC50 was < 10 µM.
Under `O=C(C1CCCCC12CC2)N1CCCC(COc2ccccc2)C1` (stereo not drawn) [Compound 209] stands 10 to 50 µM; under `CC(C)Sc1ccc(CC(=O)N2CCC(Oc3ccc(C(F)(F)F)cn3)CC2)cc1` [Compound 383], 10 to 50 µM; under `FC(F)Cn1ncc2ncc(N3CCC(Oc4cccc(C(F)(F)F)n4)CC3)nc21` [Compound 309, 1-(2,2-Difluoroethyl)-6-(4-((6-(trifluoromethyl)pyridin-2-yl)oxy)piperidin-1-yl)-1H-pyrazolo[3,4-b]pyrazine], 10 to 50 µM.
As to `COc1ccc(OCC2CCN(c3cncc(N)n3)CC2)cc1` [Compound 431], the EC50 lay in the range of 50 to 100 µM.
In the case of `CC1CCC(COc2cccnc2C(F)(F)F)CN1c1cnc2cnn(CC(F)F)c2n1` (stereo not drawn) [Compound 31, 1-(2,2-Difluoroethyl)-6-(2-methyl-5-(((2-(trifluoromethyl)pyridin-3-yl)oxy)methyl)piperidin-1-yl)-1H-pyrazolo[3,4-b]pyrazine], the EC50 was < 10 µM.
The same measure for `COc1ccc(OCC2CCN(C(=O)c3cnc[nH]3)CC2)cc1` [Compound 463]: 50 to 100 µM.
Under `CSCc1ccc(C(=O)N2CCC(OCc3ccccc3)CC2)o1` [Compound 435] stands > 100 µM.
The same measure for `CC(=O)N1CCC(n2ncc3ncc(N4CCCC(COc5ccccc5C(F)(F)F)C4)nc32)CC1` (stereo not drawn) [Compound 111, 1-(4-(6-(3-((2-(trifluoromethyl)phenoxy)methyl)piperidin-1-yl)-1H-pyrazolo[3,4-b]pyrazin-1-yl)piperidin-1-yl)ethan-1-one]: < 10 µM; for `O=C(c1ccc2c(c1)CCCC2)N1CCC(Oc2ccccc2)CC1` [Compound 407, 4-Phenoxy-1-(5,6,7,8-tetrahydronaphthalene-2-carbonyl)piperidine]: 10 to 50 µM; for `CC1CCC(COc2cccnc2C(F)(F)F)CN1c1cnc2cnn(CC3COC3)c2n1` (stereo not drawn) [Compound 118, 6-(2-Methyl-5-(((2-(trifluoromethyl)pyridin-3-yl)oxy)methyl)piperidin-1-yl)-1-(oxetan-3-ylmethyl)-1H-pyrazolo[3,4-b]pyrazine]: < 10 µM.
In the case of `FC(F)Cn1ncc2cnc(N3CCCC(COc4cccnc4C(F)(F)F)C3)nc21` (stereo not drawn) [Compound 119, 1-(2,2-difluoroethyl)-6-(3-(((2-(trifluoromethyl)pyridin-3-yl)oxy)methyl)piperidin-1-yl)-1H-pyrazolo[3,4-d]pyrimidine], the EC50 lay in the range of 10 to 50 µM.
Consider `Cc1cccc(-c2ccccc2C(=O)N2CCCC(COc3ccccc3)C2)c1` (stereo not drawn) [Compound 187], for which the EC50 lay within 10 to 50 µM.
With `FC(F)(F)c1ncccc1OC[C@@H]1[C@H]2CN(c3cnc4cnn(C5COC5)c4n3)C[C@@H]12` [Compound 98, 1-(Oxetan-3-yl)-6-((1R,5S,6r)-6-(((2-(trifluoromethyl)pyridin-3-yl)oxy)methyl)-3-azabicyclo[3.1.0]hexan-3-yl)-1H-pyrazolo[3,4-b]pyrazine], the EC50 was > 100 µM.
`C[C@@H]1C[C@H](CN(C)C23CC(C2)C3)CN(c2cnc3cnn(CC(F)F)c3n2)C1` [Compound 297] returned an EC50 of 10 to 50 µM.
Under `O=C(c1ccc2cc[nH]c2c1)N1CCC(Oc2ccc(C(F)(F)F)nc2)CC1` [Compound 314, (1H-Indol-6-yl)(4-((6-(trifluoromethyl)pyridin-3-yl)oxy)piperidin-1-yl)methanone] stands 50 to 100 µM; under `COc1ccc(OCC2CCN(Cc3[nH]cnc3C)CC2)cc1` [Compound 453], > 100 µM; under `Fc1cnc(OC[C@@H]2[C@H]3CN(c4cnc5cnn(C6COC6)c5n4)C[C@@H]23)c(F)c1` [Compound 120, 6-((1R,5S,6r)-6-(((3,5-difluoropyridin-2-yl)oxy)methyl)-3-azabicyclo[3.1.0]hexan-3-yl)-1-(oxetan-3-yl)-1H-pyrazolo[3,4-b]pyrazine], 50 to 100 µM.
As to `FC(F)Cn1ncc2ncc(N3CCC(COc4cccnc4C(F)(F)F)CC3)nc21` [Compound 323, 3-({1-[1-(2,2-Difluoroethyl)-1H-pyrazolo[3,4-b]pyrazin-6-yl]piperidin-4-yl}methoxy)-2-(trifluoromethyl)pyridine], the EC50 was < 10 µM.
`O=C(CCCc1ccccc1)N1CCC(Oc2ccc(C(F)(F)F)cn2)CC1` [Compound 386]: the EC50 lay in the range of 10 to 50 µM.
For `COc1ccc(OCC2CCN(c3ncnc4cc[nH]c34)CC2)cc1` [Compound 427], the EC50 lay in the range of 10 to 50 µM.
Consider `O=C(c1cnn(-c2ccccc2)n1)N1CCC(Oc2ccccc2)CC1` [Compound 410, 4-Phenoxy-1-(2-phenyl-2H-1,2,3-triazole-4-carbonyl)piperidine], for which the EC50 lay within 10 to 50 µM.
For the molecule `O=C(N1CCC(COc2cccc(C(F)(F)F)n2)C1)C1(c2ccccc2)CCOCC1` (stereo not drawn) [Compound 6], the EC50 was < 10 µM.
Molecule `CC(CC1CCCN(c2cnc3cnn(CC(F)F)c3n2)C1)c1ccccc1C(F)(F)F` (stereo not drawn) [Compound 66, 1-(2,2-Difluoroethyl)-6-(3-(2-(2-(trifluoromethyl)phenyl)propyl)piperidin-1-yl)-1H-pyrazolo[3,4-b]pyrazine] displayed an EC50 of 10 to 50 µM.
